Ends that are not written are not given here.
What was measured:
Type in all cases: cell-based, human
ECV304 cells [1] = assay: ECV304/Matrigel in vitro angiogenesis model (capillary-like tube formation); settings: sub-micromolar and higher concentrations; ECV304 on Matrigel
From the text: In one aspect, the present invention utilises an established model system for assaying the effect of SSTR ligands on human angiogenesis. In one embodiment, the model system comprises the spontaneously transformed human umbilical vein endothelial cell line, ECV304, grown on a Matrigel substrate (Hughes, 1996, Experimental Cell Research 225:171-185). Matrigel is a solubilized basement membrane extract that promotes the differentiation of endothelial cells into capillary tube-like structures in vitro. It has been shown that cytoskeletal reorganization occurs when human umbilical vein endothelial cells undergo the morphological changes associated with neovascular tube formation on a Matrigel substrate (Grant et al., 1991, In Vitro Cell Dev. Biol. 27A(4):327-36.). […] This assay can also be used to identify […] ligands that stimulate the process of angiogenesis. […]
ECV304 cells (3.5×10^4 in 0.5 mL complete M199 medium) were placed onto 24-well plates that were pre-coated with 0.125 mL of Matrigel (Becton-Dickinson). […] After 24 hours, images of tube-formation were recorded on film. Images were converted into a digital format using a Hewlett-Packard ScanJet 4C/T scanner, the summed length of capillary-like tubes was quantified using Optimas 6.1 image analysis software (Optimas Corp.).

ECV304 cells [2] = assay: Actin cytoskeleton visualised with fluorescently labelled phalloidin; settings: 10 nM, 37° C. for 30 min
Description: (§1) The cells were subsequently incubated at 37° C. for 30 min, fixed in 4% PFA for 5 min and washed in PBS. The actin cytoskeleton was visualized by incubating the cells with ALEXA-488 conjugated phalloidin (1:50, Molecular Probes Inc., Eugene, Oreg.) for 15 min at room temperature. Cells were screened using a Zeiss Axiophot microscope as previously described. Similar protocols were used to evaluate the effects SSTR1 selective ligands on endothelial cells.

[3] = test system: Na/H exchanger on ECV304 cells; assay: Intracellular pH imaging of the Na/H exchanger
ECV304 or HUVEC cells = assay: Actin cytoskeleton effects of SSTR selective ligands on endothelial cells
Description: as §1

| Substance | inhibition of neovascular growth (ECV304 cells [1]) | actin stress fibres (ECV304 cells [2]) | lamellipodia at the plasma membrane (ECV304 cells [2]) | effect on Na/H exchanger [3] | actin stress fibres (ECV304 or HUVEC cells) | lamellipodia formation (ECV304 or HUVEC cells) |
| --- | --- | --- | --- | --- | --- | --- |
| Somatostatin-14 (AGCKNFFWKTFTSC; ends and bridges not checked; cysteine pairing not given here; UniProt P61278 103-116, looked up) [SS14, native 14 amino acid form of somatostatin, an endogenous cyclic peptide; agonist of all somatostatin receptor subtypes] | significantly inhibit neovascular growth | loss of long stress fibers | increase in the number and size of lamellipodia | inhibit | – | – |
| des-AA^1,2,5 [DTrp^8,IAamp^9]SS [SSTR1 '499 agonist] | – | – | – | – | decrease in stress fibres | increase in lamellipodia formation |

Reference: patent US20020137676A1, “Selective treatment of endothelial somatostatin receptors” (priority 1998, published 2002)
